According to patent publication US20250059172A1, “INDAZOLE COMPOUND AND PHARMACEUTICAL” (NIPPON SHINYAKU CO., LTD., priority 2021, published 2025):
pIC50: −log10 of the molar value.

Experiments:
human A549 cells = test: Inhibition test of PGE2 production using human A549 cells; format: cell-based; conditions: IL-1β stimulated A549 cells, 24 h, PGE2 by HTRF, read-out: A549 cell inhibition of PGE2 production IC50
Procedure, shortened: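 A549 cells were preincubated 60 min with compound in RPMI/3% FBS (0.1% DMSO final), then stimulated with IL-1β (5 ng/well) for 24 h at 37°C. PGE2 was measured by HTRF and PGF2a by EIA; activity was normalized to stimulated minus unstimulated controls, and IC50 derived.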

human mPGES-1 = human mPGES-1 (Homo sapiens (Human), UniProt O14684); test: mPGES-1 inhibitory activity test; format: biochemical; conditions: for inhibition at 0.01 µM: 10 nM test compound; for inhibition at 0.1 µM: 100 nM test compound
human mPGES-1, sequence (O14684 whole entry): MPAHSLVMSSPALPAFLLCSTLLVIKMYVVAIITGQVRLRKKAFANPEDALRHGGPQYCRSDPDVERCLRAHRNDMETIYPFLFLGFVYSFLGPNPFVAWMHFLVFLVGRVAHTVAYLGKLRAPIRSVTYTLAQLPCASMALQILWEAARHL
Procedure, shortened: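 PGE2 formation was quantified by HTRF and reported as percent inhibition at 10 and 100 nM compound or as IC50. The 60-second reaction at 4° C used 1 μM PGH2, after a 20-minute 4° C preincubation of compound (1% DMSO final) with glutathione-supplemented (2.5 mM, pH 7.4) microsomes. The microsomes were from transiently transfected CHO-K1 cells expressing human mPGES-1.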

pIC50 (human A549 cells) | inhibition at 0.01 µM (human mPGES-1) [%] | inhibition at 0.1 µM (human mPGES-1) [%] | Compound
8.20 | 92 | – | CC(C)(C)CC(=O)NCc1ccc(Cl)c(C(=O)Nc2cccc3c2cnn3-c2ccc(Cl)cc2)c1 [Example 145, 2-Chloro-N-[1-(4-chlorophenyl)-1H-indazol-4-yl]-5-([(3,3-dimethylbutanoyl)amino]methyl)benzamide]
9.05 | 85 | – | O=C(Nc1cccc2c1cnn2-c1ccc(Cl)cc1)c1cc(CNC(=O)C2(C(F)(F)F)CC2)ccc1Cl [Example 147, 2-Chloro-N-[1-(4-chlorophenyl)-1H-indazol-4-yl]-5-[({[1-(trifluoromethyl)cyclopropyl]carbonyl}amino)methyl]benzamide]
8.38 | 70 | 100 | COCC(=O)NCc1ccc(Cl)c(C(=O)Nc2cccc3c2cnn3-c2ccc(Cl)cc2)c1 [Example 148, 2-Chloro-N-[1-(4-chlorophenyl)-1H-indazol-4-yl]-5-([(methoxyacetyl)amino]methyl)benzamide]
8.49 | 94 | – | CC(C)(CO)C(=O)NCc1ccc(Cl)c(C(=O)Nc2cccc3c2cnn3-c2ccc(Cl)cc2)c1 [Example 149, 2-Chloro-N-[1-(4-chlorophenyl)-1H-indazol-4-yl]-5-{[(3-hydroxy-2,2-dimethylpropanoyl)amino]methyl}benzamide]
8.23 | 72 | – | O=C(Nc1cccc2c1cnn2-c1ccc(Cl)cc1)c1cc(CNS(=O)(=O)C2CC2)ccc1Cl [Example 150, 2-Chloro-N-[1-(4-chlorophenyl)-1H-indazol-4-yl]-5-([(cyclopropylsulfonyl)amino]methyl)benzamide]
7.84 | 100 | – | CC(C)(C)CC(=O)NCc1ccc(Cl)c(C(=O)Nc2cccc3c2cnn3-c2ccc(F)cc2)c1 [Example 151, 2-Chloro-5-{[(3,3-dimethylbutanoyl)amino]methyl}-N-[1-(4-fluorophenyl)-1H-indazol-4-yl]benzamide]
8.12 | 58 | – | O=C(Nc1cccc2c1cnn2-c1ccc(F)cc1)c1cc(CNC(=O)C2CCCC2)ccc1Cl [Example 152, 2-Chloro-5-{[(cyclopentylcarbonyl)amino]methyl}-N-[1-(4-fluorophenyl)-1H-indazol-4-yl]benzamide]
9.00 | 100 | – | O=C(Nc1cccc2c1cnn2-c1ccc(F)cc1)c1cc(CNC(=O)C2(C(F)(F)F)CC2)ccc1Cl [Example 153, 2-Chloro-N-[1-(4-fluorophenyl)-1H-indazol-4-yl]-5-[({[1-(trifluoromethyl)cyclopropyl]carbonyl}amino)methyl]benzamide]
7.75 | 58 | 89 | O=C(Nc1cccc2c1cnn2-c1ccc(F)cc1)c1cc(CNC(=O)C2(O)CC2)ccc1Cl [Example 154, 2-Chloro-N-[1-(4-fluorophenyl)-1H-indazol-4-yl]-5-({[(1-hydroxycyclopropyl)carbonyl]amino}methyl)benzamide]
8.23 | 100 | – | COCC(=O)NCc1ccc(Cl)c(C(=O)Nc2cccc3c2cnn3-c2ccc(F)cc2)c1 [Example 155, 2-Chloro-N-[1-(4-fluorophenyl)-1H-indazol-4-yl]-5-([(methoxyacetyl)amino]methyl)benzamide]
8.15 | 63 | 86 | CC(C)(CO)C(=O)NCc1ccc(Cl)c(C(=O)Nc2cccc3c2cnn3-c2ccc(F)cc2)c1 [Example 156, 2-Chloro-N-[1-(4-fluorophenyl)-1H-indazol-4-yl]-5-([(3-hydroxy-2,2-dimethylpropanoyl)amino]methyl)benzamide]
7.84 | 100 | – | O=C(Nc1cccc2c1cnn2-c1ccc(F)cc1)c1cc(CNS(=O)(=O)C2CC2)ccc1Cl [Example 157, 2-Chloro-5-{[(cyclopropylsulfonyl)amino]methyl}-N-[1-(4-fluorophenyl)-1H-indazol-4-yl]benzamide]
8.80 | 49 | 100 | CC(C)(C)C(=O)NCc1ccc(Cl)c(C(=O)Nc2cccc3c2cnn3-c2ccc(F)cc2)c1Cl [Example 158, 2,6-Dichloro-3-{[(2,2-dimethylpropanoyl)amino]methyl}-N-[1-(4-fluorophenyl)-1H-indazol-4-yl]benzamide]
8.04 | 55 | 100 | COc1cc(-n2ncc3c(NC(=O)c4cc(CNC(=O)CC(C)(C)C)ccc4Cl)cccc32)ccn1 [Example 159, 2-Chloro-5-{[(3,3-dimethylbutanoyl)amino]methyl}-N-[1-(2-methoxypyridin-4-yl)-1H-indazol-4-yl]benzamide]
7.55 | 69 | 100 | COc1cc(-n2ncc3c(NC(=O)c4cc(CNC(=O)C(C)(C)CO)ccc4Cl)cccc32)ccn1 [Example 164, 2-Chloro-5-{[(3-hydroxy-2,2-dimethylpropanoyl)amino]methyl}-N-[1-(2-methoxypyridin-4-yl)-1H-indazol-4-yl]benzamide]
8.07 | 80 | 96 | COc1cc(-n2ncc3c(NC(=O)c4cc(CNS(=O)(=O)C5CC5)ccc4Cl)cccc32)ccn1 [Example 165, 2-Chloro-5-{[(cyclopropylsulfonyl)amino]methyl}-N-[1-(2-methoxypyridin-4-yl)-1H-indazol-4-yl]benzamide]
8.92 | 53 | 92 | O=C(Nc1cccc2c1cnn2-c1cncc(C(F)(F)F)c1)c1cc(CNC(=O)C2(C(F)(F)F)CC2)ccc1Cl [Example 168, 2-Chloro-5-[({[1-(trifluoromethyl)cyclopropyl]carbonyl}amino)methyl]-N-{1-[5-(trifluoromethyl)pyridin-3-yl]-1H-indazol-4-yl}benzamide]
8.02 | – | 100 | CC(C)(CO)C(=O)NCc1ccc(Cl)c(C(=O)Nc2cccc3c2cnn3-c2cncc(C(F)(F)F)c2)c1 [Example 171, 2-Chloro-5-{[(3-hydroxy-2,2-dimethylpropanoyl)amino]methyl}-N-{1-[5-(trifluoromethyl)pyridin-3-yl]-1H-indazol-4-yl}benzamide]
8.25 | 100 | – | O=C(Nc1cccc2c1cnn2-c1cncc(C(F)(F)F)c1)c1cc(CNS(=O)(=O)C2CC2)ccc1Cl [Example 172, 2-Chloro-5-{[(cyclopropylsulfonyl)amino]methyl}-N-{l-[5-(trifluoromethyl)pyridin-3-yl]-1H-indazol-4-yl}benzamide]
8.17 | 54 | 86 | CC(C)(C)CC(=O)NCc1ccc(Cl)c(C(=O)Nc2cccc3c2cnn3-c2ccc(C(F)(F)F)nc2)c1 [Example 173, 2-Chloro-5-{[(3,3-dimethylbutanoyl)amino]methyl}-N-{1-[6-(trifluoromethyl)pyridin-3-yl]-1H-indazol-4-yl}benzamide]
8.72 | 85 | 86 | O=C(Nc1cccc2c1cnn2-c1ccc(C(F)(F)F)nc1)c1cc(CNC(=O)C2CCCC2)ccc1Cl [Example 174, 2-Chloro-5-{[(cyclopentylcarbonyl)amino]methyl}-N-{1-[6-(trifluoromethyl)pyridin-3-yl]-1H-indazol-4-yl}benzamide]
8.36 | 59 | 95 | O=C(Nc1cccc2c1cnn2-c1ccc(C(F)(F)F)nc1)c1cc(CNS(=O)(=O)C2CC2)ccc1Cl [Example 179, 2-Chloro-5-{[(cyclopropylsulfonyl)amino]methyl}-N-{1-[6-(trifluoromethyl)pyridin-3-yl]-1H-indazol-4-yl}benzamide]
7.39 | 75 | – | CC(C)n1ncc2c(NC(=O)c3cc(CNC(=O)C4CCCC4)ccc3Cl)cccc21 [Example 180, 2-Chloro-5-{[(cyclopentylcarbonyl)amino]methyl}-N-[1-(propan-2-yl)-1H-indazol-4-yl]benzamide]
6.99 | 68 | – | O=C(Nc1cccc2c1cnn2-c1cscn1)c1cc(CNC(=O)C2CCCC2)ccc1Cl [Example 188, 2-Chloro-5-{[(cyclopentylcarbonyl)amino]methyl}-N-[1-(1,3-thiazol-4-yl)-1H-indazol-4-yl]benzamide]
7.63 | 80 | – | O=C(Nc1cccc2c1cnn2-c1cscn1)c1cc(CNC(=O)C2(C(F)(F)F)CC2)ccc1Cl [Example 189, 2-Chloro-N-[1-(1,3-thiazol-4-yl)-1H-indazol-4-yl]-5-[({[1-(trifluoromethyl)cyclopropyl]carbonyl}amino)methyl]benzamide]
7.50 | 70 | 90 | CC(C)(CO)C(=O)NCc1ccc(Cl)c(C(=O)Nc2cccc3c2cnn3-c2cscn2)c1 [Example 192, 2-Chloro-5-{[(3-hydroxy-2,2-dimethylpropanoyl)amino]methyl}-N-[1-(1,3-thiazol-4-yl)-1H-indazol-4-yl]benzamide]
7.48 | 71 | – | O=C(Nc1cccc2c1cnn2-c1cscn1)c1cc(CNS(=O)(=O)C2CC2)ccc1Cl [Example 193, 2-Chloro-5-{[(cyclopropylsulfonyl)amino]methyl}-N-[1-(1,3-thiazol-4-yl)-1H-indazol-4-yl]benzamide]
